“And” between values parts separate entries of the source, which are not always exact repeats. Equal values may be shown once. ± gives the uncertainty stated by the source.
Experiment: xn = mol fraction of the nth substance listed

CN(C)C=O + CO
Details	viscosity
293.15 K, 101 kPa, x2 = 0.0998	0.835 ± 0.012 mPa·s
293.15 K, 101 kPa, x2 = 0.2	0.809 ± 0.011 mPa·s
293.15 K, 101 kPa, x2 = 0.3	0.782 ± 0.011 mPa·s
293.15 K, 101 kPa, x2 = 0.4002	0.754 ± 0.011 mPa·s
293.15 K, 101 kPa, x2 = 0.5	0.723 ± 0.011 mPa·s
293.15 K, 101 kPa, x2 = 0.6	0.693 ± 0.01 mPa·s
293.15 K, 101 kPa, x2 = 0.6997	0.665 ± 0.01 mPa·s
293.15 K, 101 kPa, x2 = 0.8	0.64 ± 0.01 mPa·s
293.15 K, 101 kPa, x2 = 0.8998	0.613 ± 0.01 mPa·s
298 K, 101.3 kPa, x2 = 0.1198	0.766 ± 0.011 mPa·s
298 K, 101.3 kPa, x2 = 0.2267	0.739 ± 0.01 mPa·s
298 K, 101.3 kPa, x2 = 0.4094	0.693 ± 0.01 mPa·s
298 K, 101.3 kPa, x2 = 0.5596	0.655 ± 0.009 mPa·s
298 K, 101.3 kPa, x2 = 0.6854	0.623 ± 0.009 mPa·s
298 K, 101.3 kPa, x2 = 0.7922	0.596 ± 0.009 mPa·s
298 K, 101.3 kPa, x2 = 0.884	0.573 ± 0.008 mPa·s
298 K, 101.3 kPa, x2 = 0.9639	0.553 ± 0.008 mPa·s
298.15 K, 101 kPa, x1 = 0.3048	0.568 ± 0.16 mPa·s
298.15 K, 101 kPa, x2 = 0.0998	0.782 ± 0.011 mPa·s
298.15 K, 101 kPa, x2 = 0.2	0.758 ± 0.011 mPa·s
298.15 K, 101 kPa, x2 = 0.3	0.734 ± 0.011 mPa·s
298.15 K, 101 kPa, x2 = 0.4002	0.705 ± 0.011 mPa·s
298.15 K, 101 kPa, x2 = 0.5	0.678 ± 0.01 mPa·s
298.15 K, 101 kPa, x2 = 0.6	0.649 ± 0.01 mPa·s
298.15 K, 101 kPa, x2 = 0.6997	0.622 ± 0.01 mPa·s
298.15 K, 101 kPa, x2 = 0.8	0.596 ± 0.01 mPa·s
298.15 K, 101 kPa, x2 = 0.8998	0.572 ± 0.01 mPa·s
303.15 K, 101 kPa, x1 = 0.0995	0.5458 ± 0.0048 mPa·s
303.15 K, 101 kPa, x1 = 0.2004	0.5714 ± 0.0051 mPa·s
303.15 K, 101 kPa, x1 = 0.3004	0.5986 ± 0.0053 mPa·s
303.15 K, 101 kPa, x1 = 0.3993	0.6269 ± 0.0056 mPa·s
303.15 K, 101 kPa, x1 = 0.5008	0.6547 ± 0.0059 mPa·s
303.15 K, 101 kPa, x1 = 0.5728	0.6716 ± 0.006 mPa·s
303.15 K, 101 kPa, x1 = 0.6998	0.7023 ± 0.0064 mPa·s
303.15 K, 101 kPa, x1 = 0.8014	0.7263 ± 0.0068 mPa·s
303.15 K, 101 kPa, x1 = 0.8996	0.7515 ± 0.0071 mPa·s
303.15 K, 101 kPa, x2 = 0.0998	0.736 ± 0.011 mPa·s
303.15 K, 101 kPa, x2 = 0.2	0.713 ± 0.011 mPa·s
303.15 K, 101 kPa, x2 = 0.3	0.688 ± 0.01 mPa·s
303.15 K, 101 kPa, x2 = 0.4002	0.663 ± 0.01 mPa·s
303.15 K, 101 kPa, x2 = 0.5	0.674 ± 0.017 mPa·s and 0.636 ± 0.01 mPa·s
303.15 K, 101 kPa, x2 = 0.6	0.608 ± 0.01 mPa·s
303.15 K, 101 kPa, x2 = 0.6997	0.584 ± 0.01 mPa·s
303.15 K, 101 kPa, x2 = 0.8	0.559 ± 0.009 mPa·s
303.15 K, 101 kPa, x2 = 0.8998	0.534 ± 0.009 mPa·s
308.15 K, 101 kPa, x1 = 0.0995	0.5094 ± 0.0046 mPa·s
308.15 K, 101 kPa, x1 = 0.2004	0.5345 ± 0.0048 mPa·s
308.15 K, 101 kPa, x1 = 0.3004	0.5606 ± 0.005 mPa·s
308.15 K, 101 kPa, x1 = 0.3993	0.5882 ± 0.0053 mPa·s
308.15 K, 101 kPa, x1 = 0.5008	0.6152 ± 0.0056 mPa·s
308.15 K, 101 kPa, x1 = 0.5728	0.6314 ± 0.0057 mPa·s
308.15 K, 101 kPa, x1 = 0.6998	0.6621 ± 0.0061 mPa·s
308.15 K, 101 kPa, x1 = 0.8014	0.6853 ± 0.0064 mPa·s
308.15 K, 101 kPa, x1 = 0.8996	0.7087 ± 0.0068 mPa·s
313.15 K, 101 kPa, x1 = 0.0995	0.4776 ± 0.0044 mPa·s
313.15 K, 101 kPa, x1 = 0.2004	0.5008 ± 0.0046 mPa·s
313.15 K, 101 kPa, x1 = 0.3004	0.5259 ± 0.0048 mPa·s
313.15 K, 101 kPa, x1 = 0.3993	0.5524 ± 0.005 mPa·s
313.15 K, 101 kPa, x1 = 0.5008	0.5781 ± 0.0053 mPa·s
313.15 K, 101 kPa, x1 = 0.5728	0.5933 ± 0.0055 mPa·s
313.15 K, 101 kPa, x1 = 0.6998	0.6213 ± 0.0058 mPa·s
313.15 K, 101 kPa, x1 = 0.8014	0.644 ± 0.0061 mPa·s
313.15 K, 101 kPa, x1 = 0.8996	0.667 ± 0.0064 mPa·s
313.15 K, 101 kPa, x2 = 0.0998	0.655 ± 0.01 mPa·s
313.15 K, 101 kPa, x2 = 0.2	0.635 ± 0.01 mPa·s
313.15 K, 101 kPa, x2 = 0.3	0.612 ± 0.01 mPa·s
313.15 K, 101 kPa, x2 = 0.4002	0.589 ± 0.01 mPa·s
313.15 K, 101 kPa, x2 = 0.5	0.58 ± 0.015 mPa·s and 0.565 ± 0.009 mPa·s
313.15 K, 101 kPa, x2 = 0.6	0.54 ± 0.009 mPa·s
313.15 K, 101 kPa, x2 = 0.6997	0.517 ± 0.009 mPa·s
313.15 K, 101 kPa, x2 = 0.8	0.493 ± 0.009 mPa·s
313.15 K, 101 kPa, x2 = 0.8998	0.47 ± 0.009 mPa·s
318.15 K, 101 kPa, x1 = 0.0995	0.4467 ± 0.0041 mPa·s
318.15 K, 101 kPa, x1 = 0.2004	0.4692 ± 0.0043 mPa·s
318.15 K, 101 kPa, x1 = 0.3004	0.4936 ± 0.0045 mPa·s
318.15 K, 101 kPa, x1 = 0.3993	0.5191 ± 0.0048 mPa·s
318.15 K, 101 kPa, x1 = 0.5008	0.5439 ± 0.005 mPa·s
318.15 K, 101 kPa, x1 = 0.5728	0.5587 ± 0.0052 mPa·s
318.15 K, 101 kPa, x1 = 0.6998	0.5861 ± 0.0055 mPa·s
318.15 K, 101 kPa, x1 = 0.8014	0.6075 ± 0.0058 mPa·s
318.15 K, 101 kPa, x1 = 0.8996	0.6304 ± 0.0061 mPa·s
323.15 K, 101 kPa, x1 = 0.0995	0.4174 ± 0.0039 mPa·s
323.15 K, 101 kPa, x1 = 0.2004	0.4387 ± 0.0041 mPa·s
323.15 K, 101 kPa, x1 = 0.3004	0.4617 ± 0.0043 mPa·s
323.15 K, 101 kPa, x1 = 0.3993	0.4864 ± 0.0045 mPa·s
323.15 K, 101 kPa, x1 = 0.5008	0.51 ± 0.0048 mPa·s
323.15 K, 101 kPa, x1 = 0.5728	0.5243 ± 0.0049 mPa·s
323.15 K, 101 kPa, x1 = 0.6998	0.5501 ± 0.0052 mPa·s
323.15 K, 101 kPa, x1 = 0.8014	0.5705 ± 0.0055 mPa·s
323.15 K, 101 kPa, x1 = 0.8996	0.5923 ± 0.0058 mPa·s
323.15 K, 101 kPa, x2 = 0.0998	0.588 ± 0.01 mPa·s
323.15 K, 101 kPa, x2 = 0.2	0.569 ± 0.009 mPa·s
323.15 K, 101 kPa, x2 = 0.3	0.549 ± 0.009 mPa·s
323.15 K, 101 kPa, x2 = 0.4002	0.528 ± 0.009 mPa·s
323.15 K, 101 kPa, x2 = 0.5	0.503 ± 0.014 mPa·s and 0.506 ± 0.009 mPa·s
323.15 K, 101 kPa, x2 = 0.6	0.483 ± 0.009 mPa·s
323.15 K, 101 kPa, x2 = 0.6997	0.46 ± 0.009 mPa·s
323.15 K, 101 kPa, x2 = 0.8	0.438 ± 0.008 mPa·s
323.15 K, 101 kPa, x2 = 0.8998	0.415 ± 0.008 mPa·s

— the CheMixHub viscosity set
